One block for each compound: values may come before it.
Key:
Format in all cases: physicochemical
[1] = Example 23: release of methanol from methyl-O-α-D-3′-ketomannopyranoside vs methyl-O-α-D-mannopyranoside, 0.1 M deuterated phosphate buffer or D2O, 15% D6-DMSO, 32° C.
Protocol: In this example the rate of release of methanol from (2R,3R,5R,6S)-3,5-dihydroxy-2-(hydroxymethyl)-6-methoxytetrahydro-4H-pyran-4-one (methyl-O-α-D-3′-ketomannopyranoside) vs. (2R,3S,4S,5S,6S)-2-(hydroxymethyl)-6-methoxytetrahydro-2H-pyran-3,4,5-triol (methyl-O-α-D-mannopyranoside) in D2O containing 15% D6-DMSO or in 0.1 M deuterated phosphate buffer solutions of differing pH containing 15% D6-DMSO or in D2O was determined.
(§1) 0.1 M of pH 5.8 and 7.4 stock buffered solutions of sodium dihydrogen phosphate and disodium hydrogen phosphate were prepared in deuterated water (D2O).
A stock solution of 25 mg of methyl-O-α-D-3′-ketoglucomannoside in 1.0 mL of D6-DMSO were prepared.
(§2) After times indicated in table below, the mixtures where analysed by ^1H-NMR in a 400 MHz instrument.

[2] = Example 25: release of geraniol from geranyl-O-β-D-2′-acetamido-2′-deoxy-3′-keto-glucopyranoside vs geranyl-β-2′-acetamido-2′-deoxy-glucopyranoside, 0.1 M deuterated phosphate buffer or D2O, 33% D6-DMSO, 32° C.; details: for stability / geraniol release (in words): 32° C.
Description: In this example the rate of release of geraniol from N-((2R,3S,5R,6R)-2-(((E)-3,7-dimethylocta-2,6-dien-1-yl)oxy)-5-hydroxy-6-(hydroxymethyl)-4-oxotetrahydro-2H-pyran-3-yl)acetamide (geranyl-O-β-D-2′-acetamido-2′-deoxy-3′-keto-glucopyranoside) vs. N-((2R,3R,4R,5S,6R)-2-(((E)-3,7-dimethylocta-2,6-dien-1-yl)oxy)-4,5-dihydroxy-6-(hydroxymethyl)tetrahydro-2H-pyran-3-yl)acetamide (geranyl-R-2′-acetamido-2′-deoxy-glucopyranoside) in D2O containing 33% D6-DMSO or in 0.1 M deuterated phosphate buffer solutions of differing pH containing 33% D6-DMSO or in D2O was determined.
as §1
A stock solution of 25 mg of geranyl-O-β-D-2′-acetamido-2′-deoxy-3′-keto-glucopyranoside in 1.0 mL of D6-DMSO were prepared.
To four parallel reaction vials, where indicated in the reaction table below, was added 0.20 mL of the glycoside substrate solutions in D6-DMSO and 0.40 mL of low or high pH 0.1M phosphate buffer in D2O and the mixtures incubated by shaking at 32° C. After times indicated in table below, the mixtures where analysed by ^1H-NMR in a 400 MHz instrument.

[3] = Example 24: release of geraniol from geranyl-3′-keto-2′-deoxyglucopyranoside vs 2′-deoxyglucopyranoside, 0.1 M deuterated phosphate buffer or D2O, 50% D6-DMSO, 32° C.
Protocol: In this example the rate of release of geraniol from (2R,3R)-6-(((E)-3,7-dimethylocta-2,6-dien-1-yl)oxy)-3-hydroxy-2-(hydroxymethyl)tetrahydro-4H-pyran-4-one in (geranyl-3′-keto-2′-deoxyglucopyranoside) 0.1 M deuterated phosphate buffer solutions of differing pH containing 50% D6-DMSO was determined.
as §1
A stock solution of 15 mg of geraniol-O-β-D-3′-keto-2′-deoxyglucopyranoside in 1.5 mL of D6-DMSO were prepared.
as §2

[4] = Example 22: competitive release of para-nitrophenol from an approximately equimolar solution of 4-nitrophenyl-O-β-D- and -O-α-D-3′-ketoglucopyranoside, 32° C., 1H NMR integrals
Description: In this example the competitive rate of release of para-nitrophenol from an approximately equimolar solution of (2R,5S,6S)-3,5-dihydroxy-2-(hydroxymethyl)-6-(4-nitrophenoxy)tetrahydro-4H-pyran-4-one (4-nitrophenyl-O-β-D-3′-ketoglucopyranoside) and (2R,5S,6S)-3,5-dihydroxy-2-(hydroxymethyl)-6-(4-nitrophenoxy)tetrahydro-4H-pyran-4-one (4-nitrophenyl-O-α-D-3′-ketoglucopyranoside) in D2O containing 1.5% D6-DMSO or in 0.1 M deuterated phosphate buffer, pH 5.8 containing 1.5% D6-DMSO or in D2O was determined.
A solution containing approximately 2 mg each of 4-nitrophenyl-O-β-D-3′-ketoglucopyranoside and 4-nitrophenyl-O-α-D-3′-ketoglucopyranoside was prepared in 1 mL of D2O containing 3.3% v/v D6-DMSO. To two 0.375 mL portions of the resultant solution was added either D2O (0.5 mL) or 0.1M sodium phosphate buffer, pH 5.8 (0.5 mL) to given reactions 1 and 2 respectively. The resultant mixtures were analysed by ^1H NMR directly following preparation then incubated at 32° C./80 rpm and periodically analysed by ^1H NMR at recorded time points.
The change in the ratio between the integrals of the anomeric protons of each ketoglucoside and between the were sum of the anomeric protons and the anomeric protons of each ketoglucoside with time are shown in Table IX: […]

[5] = Reaction 2, 0.1M sodium phosphate buffer, pH 5.8, 0 h
[6] = Reaction 2, 0.1M sodium phosphate buffer, pH 5.8, 20 h
[7] = Reaction 2, 0.1M sodium phosphate buffer, pH 5.8, 45 h

SMILES: CO[C@H]1O[C@H](CO)[C@@H](O)[C@H](O)[C@@H]1O [methyl-O-α-D-mannopyranoside, (2R,3S,4S,5S,6S)-2-(hydroxymethyl)-6-methoxytetrahydro-2H-pyran-3,4,5-triol]
stability / methanol release (in words) ([1]; 32° C.): remains stable at pH 7.4 and in water
% Conversion by 1H-NMR ([1]; D2O, 0 h): 0%
% Conversion by 1H-NMR ([1]; D2O, 22 h): 0%
% Conversion by 1H-NMR ([1]; D2O, 96 h): 0%
% Conversion by 1H-NMR ([1]; pH 7.4, 0 h): 0%
% Conversion by 1H-NMR ([1]; pH 7.4, 22 h): 0%
% Conversion by 1H-NMR ([1]; pH 7.4, 96 h): 0%
% Conversion by 1H-NMR ([1]; pH 7.4, 192 h): 0%

% Conversion by 1H-NMR ([2]; D2O, 0 h): 0%
% Conversion by 1H-NMR ([2]; D2O, 1.5 h): 0%
% Conversion by 1H-NMR ([2]; D2O, 22 h): 0%
% Conversion by 1H-NMR ([2]; D2O, 48 h): 0%
% Conversion by 1H-NMR ([2]; D2O, 216 h): 0%
% Conversion by 1H-NMR ([2]; pH 5.8, 0 h): 0%
% Conversion by 1H-NMR ([2]; pH 5.8, 1.5 h): 5%
% Conversion by 1H-NMR ([2]; pH 5.8, 22 h): 25%
% Conversion by 1H-NMR ([2]; pH 5.8, 48 h): 32%
% Conversion by 1H-NMR ([2]; pH 5.8, 216 h): 39%
% Conversion by 1H-NMR ([2]; pH 7.4, 0 h): 0%
% Conversion by 1H-NMR ([2]; pH 7.4, 1.5 h): 5%
% Conversion by 1H-NMR ([2]; pH 7.4, 22 h): 88%
% Conversion by 1H-NMR ([2]; pH 7.4, 48 h): 100%
% Conversion by 1H-NMR ([2]; pH 7.4, 216 h): 100%
SMILES: CC(=O)N[C@@H]1C(=O)[C@H](O)[C@@H](CO)O[C@H]1OC/C=C(\C)CCC=C(C)C [N-((2R,3S,5R,6R)-2-(((E)-3,7-dimethylocta-2,6-dien-1-yl)oxy)-5-hydroxy-6-(hydroxymethyl)-4-oxotetrahydro-2H-pyran-3-yl)acetamide]
stability / geraniol release (in words) [2]: generates geraniol at both pH 5.8 and pH 7.4
rate of geraniol release compared with other ketoglycosides (in words) ([2]; similar conditions): greater than observed from geranyl-3′-keto-2′-deoxyglucopyranoside (Example 25) or geranyl-O-β-D-3′-ketoglucopyranoside (Example 17) under similar conditions

% Conversion by 1H-NMR ([3]; D2O, 0 h): 0%
% Conversion by 1H-NMR ([3]; D2O, 1 h): 0%
% Conversion by 1H-NMR ([3]; D2O, 72 h): <5%
% Conversion by 1H-NMR ([3]; D2O, 144 h): <5%
% Conversion by 1H-NMR ([3]; pH 5.8, 0 h): 0%
% Conversion by 1H-NMR ([3]; pH 5.8, 1 h): 5%
% Conversion by 1H-NMR ([3]; pH 5.8, 72 h): 32%
% Conversion by 1H-NMR ([3]; pH 5.8, 144 h): 38%
% Conversion by 1H-NMR ([3]; pH 5.8, 288 h): 47%
% Conversion by 1H-NMR ([3]; pH 7.4, 0 h): 0%
% Conversion by 1H-NMR ([3]; pH 7.4, 1 h): 6%
% Conversion by 1H-NMR ([3]; pH 7.4, 72 h): 57%
% Conversion by 1H-NMR ([3]; pH 7.4, 144 h): 88%
% Conversion by 1H-NMR ([3]; pH 7.4, 288 h): 100%
SMILES: CC(C)=CCC/C(C)=C/CO[C@H]1CC(=O)[C@H](O)[C@@H](CO)O1 [geranyl-3′-keto-2′-deoxyglucopyranoside, (2R,3R)-6-(((E)-3,7-dimethylocta-2,6-dien-1-yl)oxy)-3-hydroxy-2-(hydroxymethyl)tetrahydro-4H-pyran-4-one]
stability / geraniol release (in words) ([3]; 32° C.): generates geraniol at both pH 5.8 and pH 7.4
rate of geraniol release compared with other ketoglycosides (in words) ([3]; similar conditions): greater than observed from geranyl-O-β-D-3′-ketoglucopyranoside under similar conditions

% Conversion by 1H-NMR ([1]; D2O, 0 h): 0%
% Conversion by 1H-NMR ([1]; D2O, 22 h): 0%
% Conversion by 1H-NMR ([1]; pH 5.8, 0 h): 0%
% Conversion by 1H-NMR ([1]; pH 5.8, 22 h): 71%
% Conversion by 1H-NMR ([1]; pH 5.8, 96 h): 78%
% Conversion by 1H-NMR ([1]; pH 5.8, 192 h): 78%
% Conversion by 1H-NMR ([1]; pH 7.4, 0 h): 0%
% Conversion by 1H-NMR ([1]; pH 7.4, 22 h): 54%
% Conversion by 1H-NMR ([1]; pH 7.4, 96 h): 74%
% Conversion by 1H-NMR ([1]; pH 7.4, 192 h): 88%
SMILES: CO[C@H]1O[C@H](CO)[C@@H](O)C(=O)[C@@H]1O [methyl-O-α-D-3′-ketomannopyranoside, (2R,3R,5R,6S)-3,5-dihydroxy-2-(hydroxy-methyl)-6-methoxytetrahydro-4H-pyran-4-one]
stability / methanol release (in words) ([1]; 4.2 mg/mL): generates methanol at both pH 5.8 and pH 7.4

stability / geraniol release (in words) [2]: remains stable at pH 7.4
% Conversion by 1H-NMR ([2]; pH 7.4, 0 h): 0%
% Conversion by 1H-NMR ([2]; pH 7.4, 1.5 h): 0%
% Conversion by 1H-NMR ([2]; pH 7.4, 22 h): 0%
% Conversion by 1H-NMR ([2]; pH 7.4, 48 h): 0%
% Conversion by 1H-NMR ([2]; pH 7.4, 216 h): 0%
SMILES: CC(=O)N[C@H]1[C@H](OC/C=C(\C)CCC=C(C)C)O[C@H](CO)[C@@H](O)[C@@H]1O [N-((2R,3R,4R,5S,6R)-2-(((E)-3,7-dimethylocta-2,6-dien-1-yl)oxy)-4,5-dihydroxy-6-(hydroxymethyl)tetrahydro-2H-pyran-3-yl)acetamide, reference compound]

ratio of the sum of aromatic/α-ketoglucoside proton integrals ([4]; Reaction 1, D2O, 0 h): 6.9
ratio of α-/β-ketoglucoside proton integrals ([4]; Reaction 1, D2O, 0 h): 1.0
ratio of the sum of aromatic/α-ketoglucoside proton integrals ([4]; Reaction 1, D2O, 20 h): 7.1
ratio of α-/β-ketoglucoside proton integrals ([4]; Reaction 1, D2O, 20 h): 1.2
ratio of the sum of aromatic/α-ketoglucoside proton integrals ([4]; Reaction 1, D2O, 45 h): 6.8
ratio of α-/β-ketoglucoside proton integrals ([4]; Reaction 1, D2O, 45 h): 1.3
ratio of α-/β-ketoglucoside proton integrals ([4]; Reaction 1, D2O, 72 h): 1.3
ratio of the sum of aromatic/α-ketoglucoside proton integrals ([4]; Reaction 1, D2O, 143 h): 6.2
ratio of the sum of aromatic/α-ketoglucoside proton integrals [4, 5]: 5.7
ratio of α-/β-ketoglucoside proton integrals [4, 5]: 1.2
ratio of the sum of aromatic/α-ketoglucoside proton integrals [4, 6]: 9.3
ratio of α-/β-ketoglucoside proton integrals [4, 6]: 0.8
ratio of the sum of aromatic/α-ketoglucoside proton integrals [4, 7]: 14.2
ratio of α-/β-ketoglucoside proton integrals [4, 7]: 0.7
ratio of α-/β-ketoglucoside proton integrals ([4]; Reaction 2, 0.1M sodium phosphate buffer, pH 5.8, 72 h): 0.35
ratio of the sum of aromatic/α-ketoglucoside proton integrals ([4]; Reaction 2, 0.1M sodium phosphate buffer, pH 5.8, 143 h): 30.2
SMILES: O=C1[C@@H](O)[C@@H](Oc2ccc([N+](=O)[O-])cc2)O[C@H](CO)[C@H]1O

stability / geraniol release (in words) [3]: remains stable at pH 7.4
% Conversion by 1H-NMR ([3]; pH 7.4, 0 h): 0%
% Conversion by 1H-NMR ([3]; pH 7.4, 1 h): 0%
% Conversion by 1H-NMR ([3]; pH 7.4, 72 h): 0%
% Conversion by 1H-NMR ([3]; pH 7.4, 144 h): 0%
% Conversion by 1H-NMR ([3]; pH 7.4, 288 h): 0%
SMILES: CC(C)=CCC/C(C)=C/CO[C@H]1C[C@@H](O)[C@H](O)[C@@H](CO)O1 [geranyl-O-2′-deoxyglucopyranoside, geranyl 2′-deoxy-β-D-glucopyranoside, reference compound]

— patent US12509482B2, “3′-ketoglycoside compound for the slow release of a volatile alcohol” (GLYCOSCIENCE, S.L., priority 2020, dated 2025)
